Laboratory results reported in the NIST ThermoML archive (doi:10.1016/j.fluid.2011.11.026).
Numbers after ± are expanded uncertainties.

Details: Liquid, Closed cell (Static) method

FC(F)(F)C(F)(F)C(F)(F)C(F)(F)F [decafluorobutane]
Details	vapor or sublimation pressure [kPa]
263.15 K	72.7 ± 0.5
268.12 K	89.6 ± 0.5
273.09 K	109.4 ± 0.5
278 K	132.4 ± 0.6
282.99 K	159 ± 0.6
287.91 K	189.3 ± 0.7
292.97 K	225.4 ± 0.8
297.95 K	265.3 ± 0.8
302.9 K	310.2 ± 0.9
308.21 K	364.3 ± 1.1
312.88 K	417.8 ± 1.2
317.88 K	481.2 ± 1.4
323.22 K	556.4 ± 1.5
328.15 K	633.7 ± 1.7
332.91 K	716.1 ± 2
337.93 K	811 ± 2.2
342.91 K	913 ± 2.5
347.93 K	1025.8 ± 2.8
352.92 K	1149.2 ± 3.1
357.1 K	1261.3 ± 3.4
363.13 K	1437.8 ± 3.8
368.03 K	1594.1 ± 4.3
373.25 K	1775.9 ± 4.7
376.88 K	1912.1 ± 5.1
379.05 K	1997.7 ± 5.3

COC [dimethyl ether]
Details	vapor or sublimation pressure [kPa]
296.78 K	571.9 ± 1.2
303.46 K	690.2 ± 1.3
308.54 K	793.1 ± 1.5
312.26 K	875.3 ± 1.7
317.17 K	993.3 ± 1.8
322.08 K	1122 ± 2.1
327.08 K	1265.6 ± 2.3
332.09 K	1423.5 ± 2.6
337 K	1591.1 ± 2.9
341.97 K	1773.8 ± 3.2
347 K	1976.2 ± 3.5
351.89 K	2187.4 ± 3.9
356.91 K	2422.2 ± 4.2
361.94 K	2675.2 ± 4.7
366.96 K	2946.3 ± 5.1
371.84 K	3230.3 ± 5.6
376.91 K	3546.4 ± 6.1
379.82 K	3739 ± 6.4
382.88 K	3950.3 ± 6.8
385.83 K	4161.9 ± 7.1
387.81 K	4309.6 ± 7.4
389.81 K	4463.7 ± 7.6
391.86 K	4625.6 ± 7.9
393.81 K	4783 ± 8.1
395.74 K	4943.6 ± 8.4
